This is an account of results in US8372967B2, “Compounds and methods for modulating expression of GCCR” (Isis Pharmaceuticals, Inc., priority 2006, dated 2013).

This series deals with PCSK9 mRNA. In kind it is cell-based, human. The settings on record: Hep3B cells, 100 nM, relative to untreated control cells; for % Inhib: 0 = no reduction observed. As for the experimental part:
When cells reached appropriate confluency, they were treated with oligonucleotide using LIPOFECTIN® as described. […] Cells were treated and data were obtained in duplicate or triplicate. […] Cells were harvested 16-24 hours after oligonucleotide treatment.
Prior to quantitative PCR analysis, primer-probe sets specific to the target gene being measured were evaluated for their ability to be “multiplexed” with a GAPDH amplification reaction. After isolation the RNA is subjected to sequential reverse transcriptase (RT) reaction and real-time PCR, both of which are performed in the same well. RT and PCR reagents were obtained from Invitrogen Life Technologies (Carlsbad, Calif.). […] The RT reaction was carried out by incubation for 30 minutes at 48° C. Following a 10 minute incubation at 95° C. to activate the PLATIN 9M® Taq, 40 cycles of a two-step PCR protocol were carried out: 95° C. for 15 seconds (denaturation) followed by 60° C. for 1.5 minutes (annealing/extension).
170 μL of RiboGreen® working reagent (RiboGreen® reagent diluted 1:350 in 10 mM Tris-HCl, 1 mM EDTA, pH 7.5) was pipetted into a 96-well plate containing 30 μL purified cellular RNA. The plate was read in a CytoFluor® 4000 (PE Applied Biosystems) with excitation at 485 nm and emission at 530 nm.
Short antisense compounds targeted to a PCSK9 nucleic acid were tested for their effects on PCSK9 mRNA in vitro. The Isis No, gapmer motif and SEQ ID NO of each short antisense compound are shown again in Table 75. Cultured Hep3B cells were treated with 100 nM of short antisense compound. 5-10-5 MOE gapmers targeted to a PCSK9 nucleic acid were used as positive controls. After the treatment period, RNA was isolated from the cells and PCSK9 mRNA levels were measured by quantitative real-time PCR, as described herein. PCSK9 mRNA levels were adjusted according to total RNA content as measured by RIBOGREEN®. Results are presented in Table 75 as percent inhibition of PCSK9 (% Inhib), relative to untreated control cells.

Strand notation (5' to 3'): a small letter for the sugar, then the base; units joined by * are phosphorothioate-linked, units joined directly phosphodiester-linked; [ ] holds rarer units or linkages, { } end groups; capitals alone tell only the bases. e = 2'-O-(2-methoxyethyl) (MOE); [5mC] = 5-methylcytosine; d = 2'-deoxy (DNA)

In the case of “400339 (antisense eT*eG*dG*dT*d[5mC]*d[5mC]*dT*d[5mC]*dA*dG*dG*dG*eA*eA) [compound 400339]”, the “% Inhib” value is on record as 0%.
“400340 (antisense e[5mC]*eT*dG*dG*dT*d[5mC]*d[5mC]*dT*d[5mC]*dA*dG*dG*eG*eA) [compound 400340]”: the “% Inhib” value was determined as 0%.
Same read-out and setting: next, “400341 (antisense eG*e[5mC]*dT*dG*dG*dT*d[5mC]*d[5mC]*dT*d[5mC]*dA*dG*eG*eG) [compound 400341]”: 0%; “400342 (antisense eG*eT*dG*d[5mC]*dT*dG*dG*dG*dG*dG*dG*d[5mC]*eA*eG) [compound 400342]”: 0%.
On the same count and under the same terms, next, “400343 (antisense eG*eG*dT*dG*d[5mC]*dT*dG*dG*dG*dG*dG*dG*e[5mC]*eA) [compound 400343]”: 0%.
The same measure, in the same setting: next, “400344 (antisense eG*eG*dG*dT*dG*d[5mC]*dT*dG*dG*dG*dG*dG*eG*e[5mC]) [compound 400344]”: 0%; “400345 (antisense eT*eG*dG*dG*dT*dG*d[5mC]*dT*dG*dG*dG*dG*eG*eG) [compound 400345]”: 0%.
With “400346 (antisense eG*eA*dG*d[5mC]*dA*dG*d[5mC]*dT*d[5mC]*dA*dG*d[5mC]*eA*eG) [compound 400346]”, the “% Inhib” value was found to be 5%.
Take “400347 (antisense eG*eG*dA*dG*d[5mC]*dA*dG*d[5mC]*dT*d[5mC]*dA*dG*e[5mC]*eA) [compound 400347]”: the “% Inhib” value is 0%.
Same read-out and setting: under “400348 (antisense eT*eG*dG*dA*dG*d[5mC]*dA*dG*d[5mC]*dT*d[5mC]*dA*eG*e[5mC]) [compound 400348]” stands 0%.
With “400349 (antisense e[5mC]*eT*dG*dG*dA*dG*d[5mC]*dA*dG*d[5mC]*dT*d[5mC]*eA*eG) [compound 400349]”, the “% Inhibition Range” value is 10-20% and the “% Inhib” value was 13%.
In the same order, the values of “400350 (antisense e[5mC]*e[5mC]*d[5mC]*dT*d[5mC]*dA*d[5mC]*d[5mC]*d[5mC]*d[5mC]*d[5mC]*dA*eA*eA) [compound 400350]” are 10-20% and 15%.
On to “400351 (antisense eA*e[5mC]*d[5mC]*d[5mC]*dT*d[5mC]*dA*d[5mC]*d[5mC]*d[5mC]*d[5mC]*d[5mC]*eA*eA) [compound 400351]”, for which the “% Inhibition Range” value is given as 10-20% and the “% Inhib” value is on record as 14%.
In the same order, the values of “400354 (antisense eG*eA*d[5mC]*dA*d[5mC]*d[5mC]*d[5mC]*dT*d[5mC]*dA*d[5mC]*d[5mC]*e[5mC]*e[5mC]) [compound 400354]” are 10-20% and 19%.
“400355 (antisense eA*eG*dA*d[5mC]*dA*d[5mC]*d[5mC]*d[5mC]*dT*d[5mC]*dA*d[5mC]*e[5mC]*e[5mC]) [compound 400355]”: the “% Inhib” value is on record as 0%.
On the same count and under the same terms, next, “400356 (antisense eT*eA*dG*dA*d[5mC]*dA*d[5mC]*d[5mC]*d[5mC]*dT*d[5mC]*dA*e[5mC]*e[5mC]) [compound 400356]”: 0%; “400357 (antisense eT*eG*dG*d[5mC]*dA*dG*d[5mC]*dA*dG*dG*dA*dA*eG*e[5mC]) [compound 400357]”: 0%.
“400358 (antisense eA*eT*dG*dG*d[5mC]*dA*dG*d[5mC]*dA*dG*dG*dA*eA*eG) [compound 400358]”: the “% Inhibition Range” value is given as 10-20% and the “% Inhib” value was 12%.
Consider “400359 (antisense e[5mC]*eA*dT*dG*dG*d[5mC]*dA*dG*d[5mC]*dA*dG*dG*eA*eA) [compound 400359]”, for which the “% Inhib” value was found to be 0%.
Take “400360 (antisense eG*e[5mC]*dA*dT*dG*dG*d[5mC]*dA*dG*d[5mC]*dA*dG*eG*eA) [compound 400360]”: the “% Inhibition Range” value was 30-40% and the “% Inhib” value came out at 38%.
